From publication PMC12082738 (Journal of Enzyme Inhibition and Medicinal Chemistry, 2025)

Experiments:
[1] = target: S. cerevisiae α-GUS (Saccharomyces cerevisiae, UniProt P07265); experiment: α-GUS inhibition assay; type: biochemical
[2] = target: E. coli β-GUS (Escherichia coli, UniProt P05804); experiment: β-GUS inhibition assay; type: biochemical; settings: for Inhibition type, β-GUS: Lineweaver–Burk and Dixon plots, substrate 4-MUG
[3] = target: α-amylase; settings: read-out: IC50 α-amylase; cited from earlier work
[4] = target: protein tyrosine phosphatase-1B; settings: read-out: IC50 protein tyrosine phosphatase-1B; cited from earlier work
[5] = system: L6 myotubes; settings: cited from earlier work
[6] = system: human umbilical vein endothelial cells; settings: cited from earlier work
[7] = system: platelet-activating factor acetyltransferase; settings: read-out: IC50 platelet-activating factor acetyltransferase; cited from earlier work
[8] = system: colorectal cancer cells; settings: 7.1 μM; cited from earlier work
[9] = system: α-GUS; settings: read-out: IC50 against α-GUS; cited from earlier work
[10] = system: β-GUS; settings: read-out: IC50 against β-GUS; cited from earlier work
[11] = substrate kinetics, preliminary kinetic assay

Sequence of E. coli β-GUS (P05804 whole entry): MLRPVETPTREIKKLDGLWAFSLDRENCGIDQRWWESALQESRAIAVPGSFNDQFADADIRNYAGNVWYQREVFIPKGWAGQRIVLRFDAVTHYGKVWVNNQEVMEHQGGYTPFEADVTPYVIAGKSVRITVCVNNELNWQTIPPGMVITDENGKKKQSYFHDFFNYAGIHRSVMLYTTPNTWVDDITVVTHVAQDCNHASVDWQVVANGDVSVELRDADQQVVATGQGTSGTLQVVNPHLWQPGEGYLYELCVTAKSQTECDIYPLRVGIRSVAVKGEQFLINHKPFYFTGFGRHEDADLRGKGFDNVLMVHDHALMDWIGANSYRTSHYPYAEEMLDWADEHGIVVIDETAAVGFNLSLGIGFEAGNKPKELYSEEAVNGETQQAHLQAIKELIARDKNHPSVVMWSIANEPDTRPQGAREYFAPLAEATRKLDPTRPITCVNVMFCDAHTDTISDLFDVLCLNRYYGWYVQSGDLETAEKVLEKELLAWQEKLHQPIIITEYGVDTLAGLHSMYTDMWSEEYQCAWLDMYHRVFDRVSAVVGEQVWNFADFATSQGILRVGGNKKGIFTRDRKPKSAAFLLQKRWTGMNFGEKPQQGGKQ
Sequence of S. cerevisiae α-GUS (P07265 whole entry): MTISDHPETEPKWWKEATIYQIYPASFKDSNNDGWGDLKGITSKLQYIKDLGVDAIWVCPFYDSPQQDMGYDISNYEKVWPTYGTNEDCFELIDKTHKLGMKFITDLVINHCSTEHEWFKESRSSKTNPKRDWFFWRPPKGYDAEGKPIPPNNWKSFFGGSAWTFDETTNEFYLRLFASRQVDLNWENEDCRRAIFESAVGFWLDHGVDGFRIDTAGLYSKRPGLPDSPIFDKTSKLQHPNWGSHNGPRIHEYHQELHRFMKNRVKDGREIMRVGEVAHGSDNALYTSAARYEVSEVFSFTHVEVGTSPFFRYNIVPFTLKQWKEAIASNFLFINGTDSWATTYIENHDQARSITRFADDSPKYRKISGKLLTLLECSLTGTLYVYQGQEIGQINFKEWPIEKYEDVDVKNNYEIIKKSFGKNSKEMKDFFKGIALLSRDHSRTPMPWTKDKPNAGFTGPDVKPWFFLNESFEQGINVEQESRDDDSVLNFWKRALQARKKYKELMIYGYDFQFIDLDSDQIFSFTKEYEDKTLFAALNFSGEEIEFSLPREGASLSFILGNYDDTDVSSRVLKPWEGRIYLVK

In the case of O=[N+]([O-])c1ccc(O[C@H]2O[C@H](CO)[C@@H](O)[C@H](O)[C@H]2O)cc1 [PNPG, 4-Nitrophenyl-α-D-glucopyranoside, reference compound], the “Vmax for PNPG hydrolysis by α-GUS” value [1, 11] is reported as 1.05 ± 0.03 μmol/min/U.
O=C(O)[C@@H](O)[C@H]1OC(=O)[C@H](O)[C@H]1O [DSL, D-Saccharic acid 1,4-lactone, reference compound] gave an IC50 [2] of 55 ± 7.6 µM.
For Cc1cc(=O)oc2cc(O[C@@H]3O[C@H](C(=O)O)[C@@H](O)[C@H](O)[C@H]3O)ccc12 [4-MUG, 4-Methylumbelliferyl-β-D-glucuronide, reference compound], the “Vmax for 4-MUG hydrolysis by β-GUS” value [2, 11] was 7.21 ± 0.10 µmol/min/mg.
For CC(C)=CCc1c(O)c(CC=C(C)C)c2occ(-c3ccc(O)cc3)c(=O)c2c1O [DPG, 6,8-diprenylgenistein], the Ki [1] was 11.4 ± 2.2 µM, the IC50 ([1]; IC50 for inhibition of α-GUS, substrate PNPG 500 μM) was 60.6 ± 10.3 µM and the “Inhibition type, α-GUS” value ([1]; Lineweaver–Burk and Dixon plots, substrate PNPG) was “Un-competitive”. For the same molecule, the IC50 [2] was 4.05 ± 0.16 µM, the Ki [2] was 2.62 ± 0.1 µM and the “Inhibition type, β-GUS” value [2] was “Non-competitive”. The “Inhibition type, β-GUS” value ([2]; listed as Diprenylgenistein) was “competitive”, the IC50 [3] was 14.8 µM and the IC50 [4] was 2.3 to 28 µM. The “concentration increasing basal and insulin-stimulated glucose uptake” value [5] was greater than 10 µM, the “concentration reversing high glucose induced injury” value [6] was greater than 2.5 µM and the IC50 [7] was 19 µM. The “effect on colorectal cancer cells” value [8] was “trigger dual apoptosis and autophagy”.
For O=c1c(-c2ccc(O)cc2)coc2cc(O)ccc12 [daidzein], the IC50 [9] is given as greater than 100 µM and the IC50 [10] is given as greater than 100 µM.
